One substance from patent publication US20150368261A1, “CONJUGATES AND SMALL MOLECULES WHICH INTERACT WITH THE CD16A RECEPTOR” (BIOINTEGRATOR LIMITED LIABILITY COMPANY, priority 2013, published 2015) can be followed below.

pKd: −log10 of the molar value.

The assay deals with CD16a receptor (Homo sapiens, UniProt P08637). As to the kind of experiment: Enzyme immunoassay (ELISA) for binding of proteins and conjugates with CD16a receptor. To be noted: Table 2, interferon alfa and its conjugate (FIG. 17); read-out: Activity (Kd) towards CD16a receptor. Here is the method:
Determination of conjugate activity towards CD16a receptor. The experiment uses standard materials and equipment for enzyme immunoassay. Into wells of a 96-well plate CD16a was sorbed from a solution of 3.3 μg/ml in PBS in a volume of 75 μl/well. Sorption was carried out at 4° C. during 16 h. CD16a Solution was removed from the plate, wells were filled in with 2% solution of bovine serum albumin (BSA) in PBS-p (150 μl/well). Plates were incubated at 37° C. for 2 h and three times washed with PBS-p (each time by 300 μl/well). Then the wells were filled with solutions of the conjugates in PBSP, 50 μl/well in dilutions from 0.25 to 256 μg/ml. To each dilution of the conjugate three wells corresponded in the plate. In order to control non-specific sorption of samples some wells were filled with […] BSA solution. The plate was incubated 1 h at 37° C. in a shaker for ELISA (rotation speed was 180 rpm). The plate was washed five times with 300 μl/well of PBS-p and filled with a solution of a protein modified with horseradish peroxidase (by 75 μl/well in the working dilution, which is given in the description of immunoconjugate). The plate was incubated for 30 minutes, washed five times with 300 μl/well of PBS-p and filled with a solution of TMB (100 μl/well). […] The optical density in the plate wells was measured at 450 nm at room temperature. […]
For orientation: In an ELISA, binding on a coated surface is turned into a signal by an enzyme label.

CD16a receptor, sequence (P08637 17-254): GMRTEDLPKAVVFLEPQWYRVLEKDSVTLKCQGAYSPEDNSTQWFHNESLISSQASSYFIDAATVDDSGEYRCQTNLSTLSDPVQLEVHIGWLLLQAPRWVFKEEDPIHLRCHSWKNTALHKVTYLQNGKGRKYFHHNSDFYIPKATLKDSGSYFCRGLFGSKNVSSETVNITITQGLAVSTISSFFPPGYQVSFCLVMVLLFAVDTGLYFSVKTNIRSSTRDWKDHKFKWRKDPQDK

One may read the pKd as −log10 of the Kd, conventionally taken in molar units. As for interferon alfa, the negative-log Kd (pKd) was 6.64.
